From patent US20130029956A1, “NEW METHOD” (ASTRAZENECA AB, priority 1997, published 2013)
Marks after values point to notes of the source that are not given here.

Columns and labels:
Format in all cases: in vivo, human (children six months to eight years)
[1] = test system: plasma cortisol levels (HPA-axis function); assay: Basal and post-ACTH-stimulated plasma cortisol levels, Example 2; settings: 0.25 mg QD, 0.25 mg BID, 0.5 mg BID, 1.0 mg QD; baseline to week 12 versus placebo
Source text: (§1) Safety variables were: (a) reported adverse events that could be due to the drug; (b) morning basal and post-ACTH-simulation effects on plasma cortisol levels (HPA-axis function) in a subset of patients; and (c) changes in physical examinations, vital signs and clinical laboratory tests, including oropharyngeal and nasal fungal cultures.
(§2) Analysis of variance was used to compare differences between treatment groups for all efficacy variables, with the exception of patient discontinuations from the study, which was analyzed using Fisher's exact test. Analysis of variance was also used for morning basal and post-ACTH-simulation effects on plasma cortisol levels. Descriptive statistics were used to present all other safety data.

[2] = test system: plasma cortisol levels (HPA-axis function); assay: Basal and post-ACTH-stimulated plasma cortisol levels, Example 1; settings: 0.25, 0.5, 1.0 mg once a day; baseline to week 12 versus placebo
Protocol: as §1, with “effects” for “events”, “function);” for “function) in a subset of patients;”, “signs,” for “signs”
as §2, with “patient outcomes,” for “patient discontinuations from the study,”, “which were” for “which was”
[…] is stimulated by injection (intravenous for young children and intramuscular for infants) of corticotropin one hour before morning blood sampling.

[3] = test system: asthmatic children; assay: Phase III study of four dose regimens of budesonide nebulizing suspension and placebo in asthmatic children (Example 2); design: Nighttime Asthma Symptom Score: scale not given here; FEV1: unit not given here; settings: for FEV1 / Evening PEF / Morning PEF / Daytime Asthma Symptom Score / Nighttime Asthma Symptom Score / Number of Days Use of Breakthrough Medication: adjusted mean change from baseline over 12 weeks; for proportion of patients discontinuing due to worsening asthma: placebo 26.3%; for total proportion of patients who were discontinued: placebo 39%
Protocol: The objectives of the study were to compare the relative efficacy and safety of budesonide in a nebulizing suspension (0.25 mg administered once a day (QD), 0.25 mg administered twice per day (BID), 0.5 mg BID or 1.0 mg QD) in pediatric asthmatic patients aged six months to eight years.
(§3) This was a multicenter, randomized double-blind, placebo-controlled, parallel-group study.
Patients were mild to moderate asthmatic children aged six months to eight years of age with a diagnosis of asthma as defined by the National Institutes of Health of the U.S. Department of Health and Human Services, including:
(a) exacerbations of cough and/or wheezing on a frequent basis, including nocturnal asthma, with infrequent severe exacerbations during the last six months; (b) daily use of at least one chronic asthma medication (which could have been an inhaled GCS) with periodic use of breakthrough medication for at least three months prior to Visit 1; and (c) basal FEV1 of […] of predicted and reversibility of […] at 15±5 minutes after a standard dose of inhaled bronchodilator for patients capable of performing consistent PFTs. […]
Primary efficacy variables were mean changes from baseline in daytime and nighttime asthma symptom scores over the 12-week treatment phase. The symptom scores were obtained as in Example 1.
Secondary efficacy variables were: (a) the number of days breakthrough (bronchodilator) medication was used; (b) spirometry test variables, including FEV1, FEF25-75, and FVC performed at clinic visits in the subset of patients capable of performing spirometry testing; (c) PEF measured daily in the morning and evening in the subset of patients capable of performing PEFs; and (d) proportion of patient discontinuations from the study.
as §1, §2
A total of 471 patients were evaluated for efficacy (all patients treated). Data are expressed as the adjusted mean change from baseline over the 12-week treatment phase, all patients treated, last value carried forward (*p≦0.050; **p≦0.010 and ***p≦0.001, versus placebo; “n” is the number of patients).

[4] = test system: asthmatic children; assay: Phase III study of three dose levels of once-a-day budesonide nebulizing suspension and placebo in asthmatic children (Example 1); settings: for Asthma scores: Daytime / Asthma scores: Nighttime: 0-3 score; for proportion of patients discontinuing due to worsening asthma: placebo 23%; for total proportion of patients who were discontinued: placebo 28%
Protocol: The objectives of the study were to compare the relative efficacy and safety of a nebulizing suspension of budesonide (containing 0.25 mg, 0.5 mg, or 1.0 mg of budesonide per dose), administered once a day, in pediatric asthmatic patients aged six months to eight years.
as §3
Patients were asthmatic children who had not been treated with steroids in the 30 days prior to initiation of the study treatment.
Budesonide was administered once per day as a nebulized suspension, at 0.25 mg, 0.5 mg, or 1.0 mg per administration, via a Pari LC-Jet Plus® nebulizer connected to a Pari Master® compressor (Pari Respiratory Equipment, Inc., Richmond, Va.) with a face mask or a mouth piece. The placebo was the solvent used for the budesonide suspension (0.1 mg disodium edetate, 8.5 mg NaCl, 0.2 mg polysorbate, 0.28 mg anhydrous citric acid, and 0.5 mg sodium citrate per 1 ml water) but without budesonide.
Primary efficacy variables were mean changes from baseline in daytime and nighttime asthma symptom scores over the 12 week treatment phase. The symptom scores are based on the subjective evaluation by the patients or their parents based on a 0-3 rating system in which 0=no symptoms, 1=mild symptoms, 2=moderate symptoms, and 3=severe symptoms.
Secondary efficacy variables were: (a) patient outcomes, including the proportion of patients who were discontinued from the study for any reason and the proportion of patients who were discontinued from this study due to worsening asthma; (b) the number of days breakthrough (bronchodilator) medication was used; (c) spirometry test variables, including FEV1, FEF25-75 (forced expiratory flow during the middle half of the forced vital capacity in liters per second) and FVC (forced vital capacity in liters), performed at clinic visits in the subset of patients capable of performing spirometry testing; (d) PEF (peak expiratory flow in liters per minute) measured daily in the morning and evening in the subset of patients capable of performing PEF testing; (e) changes in health status measurements, including the Modified Functional Status II Scale Child Health Status Scale and the RAND General Health Index; and (f) differences in asthma-related health care utilization and indirect health care costs.
as §1, with “effects” for “events”, “function);” for “function) in a subset of patients;”, “signs,” for “signs”
as §2, with “patient outcomes,” for “patient discontinuations from the study,”, “which were” for “which was”
Results of nighttime and daytime asthma symptom scores, and the number of days of use of breakthrough medication are presented in Table 1. Data are expressed as the adjusted mean change from baseline over the 12-week treatment phase, all patients treated, last value carried forward (*p≦0.050, **p≦0.010, and ***p≦0.001 versus placebo (PBO); “n” is number of patients). Thus improvements are indicated by negative values of these variables.

[5] = 0.25 mg BID, n = 34, no unit in table
[6] = 0.5 mg BID, n = 29, no unit in table
[7] = 1.0 mg QD, n = 34, no unit in table
[8] = 0.25 mg once a day nebulized, adjusted mean change from baseline over 12 weeks, n = 91
[9] = 0.5 mg once a day nebulized, adjusted mean change from baseline over 12 weeks, n = 82
[10] = 1.0 mg once a day nebulized, adjusted mean change from baseline over 12 weeks, n = 93

CCCC1O[C@@H]2C[C@H]3[C@@H]4CCC5=CC(=O)C=C[C@]5(C)[C@H]4[C@@H](O)C[C@]3(C)[C@]2(C(=O)CO)O1 (stereo partly drawn) [Budesonide, budesonide]
HPA-axis suppression (basal and post-ACTH-stimulated plasma cortisol) [1]: no evidence of HPA-axis suppression | HPA-axis suppression (basal and post-ACTH-stimulated plasma cortisol) [2]: no evidence of HPA-axis suppression | FEV1 ([3]; 0.25 mg BID, n = 33, no unit in table): 0.03 | Evening PEF [3, 5]: 19.2* ^ | Morning PEF [3, 5]: 23.0** | Daytime Asthma Symptom Score ([3]; 0.25 mg BID, n = 97): −0.40* | Nighttime Asthma Symptom Score ([3]; 0.25 mg BID, n = 97): −0.49*** | Number of Days Use of Breakthrough Medication ([3]; 0.25 mg BID, n = 97): −5.22*** days | proportion of patients discontinuing due to worsening asthma ([3]; 0.25 mg BID, p=0.029): 13.1% | total proportion of patients who were discontinued ([3]; 0.25 mg BID): 21% | FEV1 ([3]; 0.25 mg QD, n = 31, no unit in table): 0.07 | Evening PEF ([3]; 0.25 mg QD, n = 32, no unit in table): 16.8* | Morning PEF ([3]; 0.25 mg QD, n = 32, no unit in table (baseline PEF in L/min)): 10.9 | Daytime Asthma Symptom Score ([3]; 0.25 mg QD, n = 92): −0.28 | Nighttime Asthma Symptom Score ([3]; 0.25 mg QD, n = 93): −0.28 | Number of Days Use of Breakthrough Medication ([3]; 0.25 mg QD, n = 93): −4.39* days | proportion of patients discontinuing due to worsening asthma ([3]; 0.25 mg QD): 16.0% | total proportion of patients who were discontinued ([3]; 0.25 mg QD): 21% | Evening PEF [3, 6]: 21.0** | FEV1 [3, 6]: 0.17* | Morning PEF [3, 6]: 24.8** | Daytime Asthma Symptom Score ([3]; 0.5 mg BID, n = 96): −0.46** | Nighttime Asthma Symptom Score ([3]; 0.5 mg BID, n = 96): −0.42** | Number of Days Use of Breakthrough Medication ([3]; 0.5 mg BID, n = 96): −4.92** days | proportion of patients discontinuing due to worsening asthma ([3]; 0.5 mg BID): 15.3% | total proportion of patients who were discontinued ([3]; 0.5 mg BID): 19% | Evening PEF [3, 7]: 14.1 | FEV1 [3, 7]: 0.11 | Morning PEF [3, 7]: 17.1* | Daytime Asthma Symptom Score ([3]; 1.0 mg QD, n = 93): −0.37* | Nighttime Asthma Symptom Score ([3]; 1.0 mg QD, n = 93): −0.40** | Number of Days Use of Breakthrough Medication ([3]; 1.0 mg QD, n = 93): −4.38* days | proportion of patients discontinuing due to worsening asthma ([3]; 1.0 mg QD): 21.1% | total proportion of patients who were discontinued ([3]; 1.0 mg QD): 31% | number of patients with clinically significant changes in nasal or oral fungal cultures between treatment groups ([3]; four regimens, 12 weeks): no apparent differences | type, incidence or severity of adverse events compared to placebo ([3]; in vivo): no clinically relevant differences | vital signs or physical examination outcomes between treatment groups ([3]; in vivo): no clinically relevant differences | Asthma scores: Daytime [4, 8]: −0.57** | Asthma scores: Nighttime [4, 8]: −0.49*** | FEV1 ([4]; 0.25 mg once a day, adjusted mean change from baseline over 12 weeks, n = 29): -0.01 L | Morning PEF ([4]; 0.25 mg once a day, adjusted mean change from baseline over 12 weeks, n = 44): 14.4 L/min | Days of use of bronchodilator ([4]; 0.25 mg once a day, adjusted mean change from baseline over 12 weeks, n = 91): −6.26* days | proportion of patients discontinuing due to worsening asthma ([4]; 0.25 mg once a day): 14% | total proportion of patients who were discontinued ([4]; 0.25 mg once a day): 19% | Asthma scores: Daytime [4, 9]: −0.46* | Asthma scores: Nighttime [4, 9]: −0.42** | FEV1(L) ([4]; 0.5 mg once a day, adjusted mean change from baseline over 12 weeks, n = 28): 0.03* L | Morning PEF ([4]; 0.5 mg once a day, adjusted mean change from baseline over 12 weeks, n = 41): 6.5 L/min | Days of use of bronchodilator ([4]; 0.5 mg once a day, adjusted mean change from baseline over 12 weeks, n = 82): −5.31* days | proportion of patients discontinuing due to worsening asthma ([4]; 0.5 mg once a day): 17% | total proportion of patients who were discontinued ([4]; 0.5 mg once a day): 24% | Asthma scores: Daytime [4, 10]: −0.50* | Asthma scores: Nighttime [4, 10]: −0.42** | FEV1(L) ([4]; 1.0 mg once a day, adjusted mean change from baseline over 12 weeks, n = 33): 0.03* L | Morning PEF ([4]; 1.0 mg once a day, adjusted mean change from baseline over 12 weeks, n = 55): 10.9 L/min | Days of use of bronchodilator ([4]; 1.0 mg once a day, adjusted mean change from baseline over 12 weeks, n = 93): −5.98* days | proportion of patients discontinuing due to worsening asthma ([4]; 1.0 mg once a day): 13% | total proportion of patients who were discontinued ([4]; 1.0 mg once a day, p=0.020): 14% | vital signs or physical examination differences between treatment groups ([4]; in vivo): no clinically relevant differences | clinically significant changes in nasal or oral fungal cultures between treatment groups ([4]; three doses once a day, 12 weeks): no clinically relevant differences
